Assay results from patent US9763445B2, “Safened herbicidal compositions comprising a pyridine carboxylic acid herbicide” (Dow AgroSciences, LLC, priority 2014, dated 2017).

Key:
spring wheat (TRZAS) = test: Postemergence greenhouse trial, % visual injury on spring wheat; format: in vivo, Triticum aestivum; details: TRZAS
Procedure, shortened: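 Injury was scored visually (0 = none, 100 = complete kill) 20–22 d after track-sprayer application at 187 L/ha, compared with solvent-sprayed controls. Test plants at the 2–3 true leaf stage; herbicide (g ae/ha) plus cloquintocet-mexyl safener (g ai/ha) in crop-oil-containing spray; expected mixture response by Colby.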

spring barley (HORVS) = test: Postemergence greenhouse trial, % visual injury on spring barley; format: in vivo, Hordeum vulgare; details: HORVS
Procedure: (§1) Seeds of the desired test plant species were planted in Sun Gro MetroMix® 306 planting mixture, which typically has a pH of 6.0 to 6.8 and an organic matter content of about 30 percent, in plastic pots with a surface area of 103.2 square centimeters (cm^2). When required to ensure good germination and healthy plants, a fungicide treatment and/or other chemical or physical treatment was applied. The plants were grown for 7-36 days (d) in a greenhouse with an approximate 14-hour (h) photoperiod which was maintained at about 23° C. during the day and 22° C. during the night. Nutrients and water were added on a regular basis and supplemental lighting was provided with overhead metal halide 1000-Watt lamps as necessary. The plants were employed for testing when they reached the second or third true leaf stage.
(§2) Weighed amounts of technical material were dissolved in a volume of 97:3 volume per volume (v/v) acetone/dimethyl sulfoxide (DMSO) to stock solutions. […] The concentrated stock solutions were diluted with an aqueous mixture of 1.5% v/v of Agri-dex crop oil concentrate to provide the appropriate application rates. Compound requirements are based upon a 12 milliliter (mL) application volume at a rate of 187 liters per hectare (L/ha). Stocks solutions of the safeners were prepared following the same procedure. Spray solutions of the safeners and experimental compound mixtures were prepared by adding the stock solutions to the appropriate amount of dilution solution to form a 12 mL spray solution in two-way combinations. Formulated compounds were applied to the plant material with an overhead Mandel track sprayer equipped with 8002E nozzles calibrated to deliver 187 L/ha over an application area of 0.503 square meters (m^2) at a spray height of 18 inches (43 centimeters (cm)) above average plant canopy. Control plants were sprayed in the same manner with the solvent blank. All herbicide application (component a) rates are in g ae/ha and all safener (component b) rates are in g ai/ha.
(§3) The treated plants and control plants were placed in a greenhouse as described above and watered by sub-irrigation to prevent wash-off of the test compounds. After 20-22 d, the condition of the test plants as compared with that of the control plants was determined visually and scored on a scale of 0 to 100 percent where 0 corresponds to no injury and 100 corresponds to complete kill. The condition of the test plants was compared with that of the control plants as determined visually and scored on a scale of 0 to 100 percent, where 0 corresponds to no injury and 100 corresponds to complete kill. Colby's equation was used to determine the herbicidal effects expected from the mixtures.
The safener cloquintocet-mexyl was combined with compound 1, compound 2, compound 3, compound 7, compound 8, compound 9, compound 10, compound 11, compound 12, compound 13, compound 14, compound 15, compound 16, compound 17, compound 18, compound 19, and compound 20, and applied to spring wheat (TRZAS), winter wheat (TRZAW), and spring barley (HORVS) and the phytotoxicity of the herbicidal compositions was measured. […]

lambsquarters (CHEAL) = test: Postemergence greenhouse trial, % visual injury on lambsquarters; format: in vivo, Chenopodium album; details: CHEAL
Procedure, shortened: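 Visual injury, 0 (none) to 100 (complete kill), rated 20-22 d after overhead track-sprayer application at 187 L/ha; Colby's equation gave expected mixture responses. Herbicide (g ae/ha) and cloquintocet-mexyl safener (g ai/ha) diluted in aqueous 1.5% v/v Agri-dex, applied to weeds at 2–3 true leaves.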

Russian thistle (SASKR) = test: Postemergence greenhouse trial, % visual injury on Russian thistle; format: in vivo, Salsola kali; details: SASKR
[1] = system: purple deadnettle (LAMPU); test: Postemergence greenhouse trial, % visual injury on purple deadnettle; format: in vivo, Lamium purpureum; details: LAMPU, CQC-m 0 g/ha
Procedure: as §1, §2
as §3, with “mixtures. […]” for “mixtures.”

[2] = compound 8 4.380 + CQC-m 0 g/ha
[3] = compound 4.375 g/ha, CQC-m 0 g/ha
[4] = compound 8.75 g/ha, CQC-m 0 g/ha
[5] = compound 17.5 g/ha, CQC-m 0 g/ha

Question: What does the source list for `COC(=O)c1nc(-c2ccc3cc[nH]c3c2F)c(F)c(N)c1Cl` [compound 8]?
Answer: % visual injury, observed (Ob) (spring wheat (TRZAS); [2]): 7%; % visual injury, observed (Ob) (spring wheat (TRZAS); compound 8 8.75 + CQC-m 0 g/ha): 11%; % visual injury, observed (Ob) (spring wheat (TRZAS); compound 8 17.5 + CQC-m 0 g/ha): 35%; % visual injury, observed (Ob) (spring wheat (TRZAS); compound 8 35 + CQC-m 0 g/ha): 48%; % visual injury, observed (Ob) (spring wheat (TRZAS); compound 8 70 + CQC-m 0 g/ha): 60%; % visual injury, observed (Ob) (spring barley (HORVS); [2]): 12%; % visual injury, observed (Ob) (spring barley (HORVS); compound 8 8.75 + CQC-m 0 g/ha): 18%; % visual injury, observed (Ob) (spring barley (HORVS); compound 8 17.5 + CQC-m 0 g/ha): 31%; % visual injury, observed (Ob) (spring barley (HORVS); compound 8 35 + CQC-m 0 g/ha): 43%; % visual injury, observed (Ob) (spring barley (HORVS); compound 8 70 + CQC-m 0 g/ha): 53%; % visual injury, observed (Ob) (lambsquarters (CHEAL); [2]): 86%; % visual injury, observed (Ob) (lambsquarters (CHEAL); compound 8 8.75 + CQC-m 0 g/ha): 92%; % visual injury, observed (Ob) (lambsquarters (CHEAL); compound 8 17.5 + CQC-m 0 g/ha): 99%; % visual injury, observed (Ob) (lambsquarters (CHEAL); compound 8 35 + CQC-m 0 g/ha): 100%; % visual injury, observed (Ob) (lambsquarters (CHEAL); compound 8 70 + CQC-m 0 g/ha): 100%; % visual injury, observed (Ob) (Russian thistle (SASKR); [2]): 61%; % visual injury, observed (Ob) (Russian thistle (SASKR); compound 8 8.75 + CQC-m 0 g/ha): 69%; % visual injury, observed (Ob) (Russian thistle (SASKR); compound 8 17.5 + CQC-m 0 g/ha): 83%; % visual injury, observed (Ob) (Russian thistle (SASKR); compound 8 35 + CQC-m 0 g/ha): 85%; % visual injury, observed (Ob) (Russian thistle (SASKR); compound 8 70 + CQC-m 0 g/ha): 90%

Question: Which “% visual injury, Ob” value (spring wheat (TRZAS); [3]) does the source give for `Nc1cc(-c2ccc3cc[nH]c3c2F)nc(C(=O)O)c1Cl` [compound 15] here?
Answer: The value was 0%.

Question: What about the “% visual injury, Ob” value (spring wheat (TRZAS); [4]) of the same compound?
Answer: The value was 10%.

Question: And the “% visual injury, Ob” value (spring wheat (TRZAS); [5])?
Answer: Its value is 15%.

Question: What about the “% visual injury, Ob” value (spring wheat (TRZAS); compound 35 g/ha, CQC-m 0 g/ha) of the same compound?
Answer: Its value is 20%.

Question: And the “% visual injury, Ob” value (spring wheat (TRZAS); compound 70 g/ha, CQC-m 0 g/ha)?
Answer: The value was 25%.

Question: What about the “% visual injury, Ob” value (spring barley (HORVS); [3]) of the same compound?
Answer: Its value is 0%.

Question: What about the “% visual injury, Ob” value (spring barley (HORVS); [4]) of the same compound?
Answer: Its value is 0%.

Question: And the “% visual injury, Ob” value (spring barley (HORVS); [5])?
Answer: The value was 0%.

Question: And the “% visual injury, Ob” value (spring barley (HORVS); compound 35 g/ha, CQC-m 0 g/ha)?
Answer: The value was 10%.

Question: What about the “% visual injury, Ob” value (spring barley (HORVS); compound 70 g/ha, CQC-m 0 g/ha) of the same compound?
Answer: The value was 10%.

Question: What about the “% visual injury, Ob” value ([1]; compound 4.375 g/ha) of the same compound?
Answer: The value was 93%.

Question: And the “% visual injury, Ob” value ([1]; compound 8.75 g/ha)?
Answer: Its value is 95%.

Question: What about the “% visual injury, Ob” value ([1]; compound 17.5 g/ha) of the same compound?
Answer: Its value is 93%.

Question: And the “% visual injury, Ob” value ([1]; compound 35 g/ha)?
Answer: The value was 93%.

Question: And the “% visual injury, Ob” value ([1]; compound 70 g/ha)?
Answer: Its value is 95%.

Question: What about the “% visual injury, Ob” value (Russian thistle (SASKR); [3]) of the same compound?
Answer: The value was 10%.

Question: What about the “% visual injury, Ob” value (Russian thistle (SASKR); [4]) of the same compound?
Answer: The value was 10%.

Question: What about the “% visual injury, Ob” value (Russian thistle (SASKR); [5]) of the same compound?
Answer: Its value is 10%.

Question: And the “% visual injury, Ob” value (Russian thistle (SASKR); compound 35 g/ha, CQC-m 0 g/ha)?
Answer: The value was 60%.

Question: And the “% visual injury, Ob” value (Russian thistle (SASKR); compound 70 g/ha, CQC-m 0 g/ha)?
Answer: Its value is 70%.

Question: Which results are given for `Nc1c(F)c(-c2ccc3scnc3c2)nc(C(=O)O)c1Cl` [compound 17]?
Answer: % visual injury, Ob (spring wheat (TRZAS); 4.375 g/ha, applied alone): 0%; % visual injury, Ob (spring wheat (TRZAS); 8.75 g/ha, applied alone): 15%; % visual injury, Ob (spring wheat (TRZAS); 17.5 g/ha, applied alone): 30%; % visual injury, Ob (spring wheat (TRZAS); 35 g/ha, applied alone): 40%; % visual injury, Ob (spring wheat (TRZAS); 70 g/ha, applied alone): 45%; % visual injury, Ob (spring barley (HORVS); 4.375 g/ha, applied alone): 0%; % visual injury, Ob (spring barley (HORVS); 8.75 g/ha, applied alone): 15%; % visual injury, Ob (spring barley (HORVS); 17.5 g/ha, applied alone): 30%; % visual injury, Ob (spring barley (HORVS); 35 g/ha, applied alone): 40%; % visual injury, Ob (spring barley (HORVS); 70 g/ha, applied alone): 45%; pest or weed control at 4.375 g/ha (lambsquarters (CHEAL); Chenopodium album, post-emergence, 4.375 g/ha, applied alone, read-out: % visual injury, Ob): 40%; pest or weed control at 8.75 g/ha (lambsquarters (CHEAL); Chenopodium album, post-emergence, 8.75 g/ha, applied alone, read-out: % visual injury, Ob): 60%; pest or weed control at 17.5 g/ha (lambsquarters (CHEAL); Chenopodium album, post-emergence, 17.5 g/ha, applied alone, read-out: % visual injury, Ob): 70%; pest or weed control at 35 g/ha (lambsquarters (CHEAL); Chenopodium album, post-emergence, 35 g/ha, applied alone, read-out: % visual injury, Ob): 80%; pest or weed control at 70 g/ha (lambsquarters (CHEAL); Chenopodium album, post-emergence, 70 g/ha, applied alone, read-out: % visual injury, Ob): 85%

Question: With `Nc1c(F)c(-c2ccc3ccoc3c2)nc(C(=O)O)c1Cl` [compound 20] as the compound, how does the “% visual injury, Ob” value (spring wheat (TRZAS); 4.375 g/ha, applied alone) read?
Answer: Its value is 0%.

Question: And the “% visual injury, Ob” value (spring wheat (TRZAS); 8.75 g/ha, applied alone)?
Answer: The value was 0%.

Question: And the “% visual injury, Ob” value (spring wheat (TRZAS); 17.5 g/ha, applied alone)?
Answer: The value was 0%.

Question: And the “% visual injury, Ob” value (spring wheat (TRZAS); 35 g/ha, applied alone)?
Answer: The value was 10%.

Question: And the “% visual injury, Ob” value (spring wheat (TRZAS); 70 g/ha, applied alone)?
Answer: The value was 20%.

Question: And the “% visual injury, Ob” value (spring barley (HORVS); 4.375 g/ha, applied alone)?
Answer: The value was 0%.

Question: What about the “% visual injury, Ob” value (spring barley (HORVS); 8.75 g/ha, applied alone) of the same compound?
Answer: Its value is 10%.

Question: And the “% visual injury, Ob” value (spring barley (HORVS); 17.5 g/ha, applied alone)?
Answer: Its value is 20%.

Question: And the “% visual injury, Ob” value (spring barley (HORVS); 35 g/ha, applied alone)?
Answer: Its value is 30%.

Question: And the “% visual injury, Ob” value (spring barley (HORVS); 70 g/ha, applied alone)?
Answer: The value was 40%.

Question: And the “% visual injury, Ob” value (Russian thistle (SASKR); 4.375 g/ha, applied alone)?
Answer: The value was 20%.

Question: And the “% visual injury, Ob” value (Russian thistle (SASKR); 8.75 g/ha, applied alone)?
Answer: Its value is 40%.

Question: And the “% visual injury, Ob” value (Russian thistle (SASKR); 17.5 g/ha, applied alone)?
Answer: The value was 60%.

Question: And the “% visual injury, Ob” value (Russian thistle (SASKR); 35 g/ha, applied alone)?
Answer: Its value is 80%.

Question: And the “% visual injury, Ob” value (Russian thistle (SASKR); 70 g/ha, applied alone)?
Answer: Its value is 80%.
